“Also recorded” adds a separate entry of the source.

In one assay the test system is dyspepsia symptoms. The note with it: dysmotility-like and gastroesophageal reflux-like dyspepsia; cited from earlier work.
The test system of assay [1] is small bowel motility in humans with IBS. In words: Small bowel manometry in fasted IBS patients during intravenous GLP-1 infusion. Particulars: for Contraction frequency / Contraction amplitude / Contraction area / Motility index Ln (Sum (mm Hg*s)/min): 4 h, fasted IBS patients; for Contraction frequency: angle of Treitz; for Contraction frequency / Contraction amplitude / Contraction area / Motility index Ln (Sum (mm Hg*s)/min) / Adjusted MMC: mean ±SEM n=6; for Adjusted MMC: premature MMC at onset subtracted. The class given is in vivo, human. Here is the method:
Experiments were carried out in 12 subjects fulfilling the Rome-criteria for IBS. In the fasted subjects a small bowel manometry tube was passed through the nose and located in antroduodenal region under fluoroscopy. Then, small bowel manometry was recorded for 8 hours in the fasted state, and for an additional 40 min after a meal (320 kcal). During the first 4-hour period of the recording saline was administered intravenously. During the second 4-hour period GLP-1 was given intravenously either at a dose of 1.2 pmol/kg/min (72 pmol/kg/h) (n=6) or 2.5 pmol/kg/min (150 pmol/kg/h) (n=6) with the infusion continued over the 40-minute meal period. GLP-1 was administered as an intravenous infusion at a dose of 1.2 or 2.5 pmol/kg/min. The compound was diluted from a stock solution of GLP-1 (Polypeptide, Wolfenbüttel, Hannover, Germany) 100 nmol/ml prepared according to general guidelines with sterilization filtration and endotoxin test, and divided in 10 ml ampoules.
For each patient the solution for infusion was constituted according to body weight. The dose to be given was multiplied by body weight, resulting in an individual dosing, expressed as pmol/min. The calculated total dose (according to extrapolated 250 ml infusion time) was taken from the stock solution and diluted in 250 ml infusion volume of saline (Natriumklorid 9 mg/ml, Pharmacia & Upjohn, Stockholm, Sweden). The infusion was then given at a rate of 1 ml/min with a constant infusion pump (Volumetric infusion pump, model 960, Imed, Oxon, UK) over 4 hours (240 min).
As this premature MMC cycle was considered to be due to an immediate effect of GLP-1 during a build-up of a steady state concentration in the circulation, an adjusted MMC prevalence during GLP-1 infusion was calculated by subtracting the premature MMC at onset from the remaining MMC observed during infusion of GLP-1.
In detail, the following results were obtained from the motility recordings (reference point: angle of Treitz; values are mean ±SEM of n=6 in each group; statistical evaluation by the non-parametric Wilcoxon signed-rank test): […]

For assay [2], the system named is gastric emptying and small intestinal motility. Kind of assay: Gastric emptying and small intestinal motility in the rat. The format is in vivo.
A further assay deals with gastric acid secretion. Particulars: in man; cited from earlier work.
A further assay deals with gastric emptying. Particulars: in man; cited from earlier work.
The subject of a further assay is pancreatic secretion. The note with it: in vivo; cited from earlier work.

Turning to `COc1cc(N)c(Cl)cc1C(=O)NC1CCN(CCCOc2ccc(F)cc2)CC1OC` (stereo not shown) [cisapride], in the assay with dyspepsia symptoms, the “Symptomatic relief, share of studied patients” value is given as 60-90%.

glucagon-like peptide-1 [GLP-1]: in assay [1] (GLP-1 1.2 pmol/kg/min i.v.), the “Time after onset of infusion to start of an MMC in the duodenum” value is at most 14.2 ± 3.8 min, the Contraction frequency is recorded as 1.7 ± 0.4 #/min, the Contraction amplitude amounted to 24.7 ± 1.6 mm Hg and the Contraction area is reported as 33.4 ± 3.2 mm Hg*s. For the same molecule, in assay [1] (GLP-1 1.2 pmol/kg/min i.v.), the “Motility index Ln (Sum (mm Hg*s)/min)” value was 4.7 ± 0.3 and the “Adjusted MMC” value is 0.0 ± 0.0 #/4 h. In assay [1] (GLP-1 2.5 pmol/kg/min i.v.), the “Time after onset of infusion to start of an MMC in the duodenum” value is at most 12.0 ± 2.7 min, the Contraction frequency was 0.9 ± 0.2 #/min, the Contraction amplitude is recorded as 23.6 ± 2.5 mm Hg and the Contraction area came to 30.5 ± 5.3 mm Hg*s. For the same molecule, in assay [1] (GLP-1 2.5 pmol/kg/min i.v.), the “Motility index Ln (Sum (mm Hg*s)/min)” value worked out at 3.8 ± 0.8 and the “Adjusted MMC” value is 0.2 ± 0.2 #/4 h. The “Effect on motor activity in the small bowel (overall result in words)” value in assay [1] (IBS patients, fasted state) is given as “able to reduce the motor activity; also recorded: dose-dependent reduction of motor activity”. In assay [1] (in each group (1.2 and 2.5 pmol/kg/min)), the “Patients in whom a premature MMC was started in the duodenum” value is “four out of six”. Besides, the “Action on gastric emptying and small intestinal motility (in words)” value in assay [2] is “profound inhibitory action”. Moreover, the “Inhibition of gastric acid secretion” value with gastric acid secretion is listed as 43%. For the same molecule, the “Slowing of gastric emptying” value in the assay on gastric emptying is given as 50%. Further, in the assay with pancreatic secretion, the “Inhibition of pancreatic secretion” value was “about 45%”.

Source of the values: US6348447B1, “Pharmaceutical composition for the treatment of functional dyspepsia and/or irritable bowel syndrome and new use of substances therein” (priority 1998, dated 2002).
